These results are taken from PubChem BioAssay AID449744 (Sanford-Burnham Center for Chemical Genomics, 2010).

Active and inactive are the calls of the source.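 Rule for the calls: active = less UV crosslinking of translation factor eIF4H to capped RNA at 100 µM than solvent-only control; inactive = the rest.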

This assay concerns the target Eukaryotic translation initiation factor 4H (Homo sapiens) (UniProt Q15056). Nature of the assay: eIF4H binding to capped mRNA, inhibitors, SAR follow-up, orthogonal assay for translation initiation inhibitor project, biochemical, UV crosslinking, autoradiography (AID 449744).
Regarding `CCOC(=O)N1CCC(NC(=O)c2cccc3c2C(=O)N(c2ccc(OC)cc2)C3)CC1`, the result was inactive.

As to `CCOC(=O)c1ccc2c(c1)N(C)C(=O)c1ccccc1S2`, the outcome was inactive.

For the molecule `CCc1nnc(NC(=O)CSc2ccc(-c3ccco3)nn2)s1`, the outcome was inactive. Consider `Cc1ccc(NC(=O)CN2C(=O)N/C(=C/c3ccccc3OCc3cccc(C(=O)O)c3)C2=O)cc1`, for which the result was inactive. Then `COc1ccc(N2Cc3cccc(C(=O)NC(C)CCc4ccco4)c3C2=O)cc1` (configuration not stated), with “inactive”; and `CCn1c(=O)n(CC)c2cc(NC(=O)C(C)c3ccccc3)c(Br)cc21` (configuration not stated), with “inactive”; and `O=C(Nc1ccccc1)C1CCN(C(=O)c2cccs2)CC1`, with “inactive”. On to `COC(=O)c1c(Sc2ccccc2)c2ccccc2n1C`, for which the result was inactive.

Turning to `O=C(COc1ccc(C=NNC(=O)c2ccc(O)cc2)cc1)Nc1ccc([N+](=O)[O-])cc1`, the result was inactive.

In the case of `Cc1ccc(OC(C)C(=O)Nc2ccc3c(c2)n(C)c(=O)n3C)c(C)c1` (configuration not stated), the result was inactive.

`O=C(Nc1cccc2ncccc12)c1ccccc1Cl`: the outcome was inactive.

In the case of `COc1cc([N+](=O)[O-])ccc1NC(=O)COC(=O)c1ccc2c(c1)NC(=O)CS2`, the outcome was inactive. Consider `Cc1ccc(NC(=O)C2CCN(C(=O)c3cccs3)CC2)c(C)c1`, for which the outcome was inactive. As for `CCN1CCN(S(=O)(=O)c2ccc(Cl)c(C(=O)Nc3ccc(C(=O)N(CC)CC)cc3)c2)CC1`, the outcome was inactive. In the case of `COc1cc(C=NNC(=O)c2ccccc2O)ccc1OCC(=O)Nc1ccccc1`, the outcome was inactive. Regarding `COc1ccc(N2Cc3cccc(C(=O)N4CCN(C(=O)c5ccco5)CC4)c3C2=O)cc1`, the outcome was inactive.

With `CC(C)c1ccc(OC(=O)c2cccc(S(=O)(=O)N3CCN(C)CC3)c2)cc1`, the outcome was inactive. For the molecule `O=C(Nc1cccc2ncccc12)c1ccc(Cl)cc1`, the result was inactive. For the molecule `CCOC(=O)c1ccc2c(c1)N(CC)C(=O)c1ccccc1S2`, the result was inactive.

In the case of `COc1cc([N+](=O)[O-])ccc1NC(=O)COC(=O)c1ccc(NC(N)=O)cc1`, the outcome was inactive. Regarding `COc1cc(/C=N/NC(=O)c2ccccc2)ccc1OCC(=O)Nc1ccc([N+](=O)[O-])cc1`, the outcome was inactive. Turning to `CC(C)NC(=O)C(C)N1CCN(S(=O)(=O)c2ccc3ccccc3c2)CC1` (configuration not stated), the result was inactive.
